The record followed here is paper PMC12463120, “Phenylalanine‐Based DNA‐Encoded Chemical Libraries for the Discovery of Potent and Selective Small Organic Ligands Against Markers of Cancer and Immune Cells” (Advanced Science, 2025).

One assay concerns the target T1, GCP3 (Homo sapiens, UniProt Q9Y3Q0).
T1 construct: Avi-tag; made in house; host or cells: CHO cells
The assay is described as follows: Fluorescence polarization (FP) affinity against GCP3. It is filed as binding. The conditions noted are these: fluoresceinated compounds. On the procedure:
Hits obtained from FM‐DEL1 (A1452 and A3113) and FM‐DEL2 (A3113/B423) were re‐synthesized as stereo‐chemically pure off‐DNA compounds derivatized with a C6 linker featuring a fluorescein moiety (coupled to fluorescein isothiocyanate‐FITC) (compounds 1–6) [Figure 2E]. The binding affinity against PSMA and GCP3 (KD) of fluoresceinated compounds 1–6 was measured by fluorescence polarization (FP). […] The superiority of compound 5 (S‐configuration) in binding PSMA over compound 6 (R‐configuration) was confirmed by molecular docking studies [Figure S48, Supporting Information]. […] The presence of the sole building block A3113 on the 3‐iodo‐phenylalanine scaffold in the S‐configuration gives adequate selectivity for PSMA over GCP3. […]
(§1) Selection results were decoded with C++^[ [61] ^] and visualized using MATLAB R2019b (MathWorks). EFs were calculated by dividing the DNA sequence counts for each hit compound by the average DNA sequence count from the corresponding DEL screening. Additionally, Z‐score values were calculated following methods previously published,^[ [60] ^] as present in Supporting Information. […] Affinities of fluorescein‐bearing hits were determined by FP or ELISA measurements. […] Binding kinetics were assessed on a Biacore X100 instrument with the target protein immobilized on a CM5 chip at 4′000 RUs. […]
(§2) 2.11 Fluorescence polarization (FP) measurements with fluoresceine-labelled […]
(Fluorescence polarisation rises when a labelled molecule tumbles more slowly, as on binding a larger partner.)

Assay [1] relates to HT-1080.hPSMA tumor cells. The assay is described as follows: Flow cytometry on HT-1080.hPSMA cells. The conditions noted are these: 250 nM. The class given is cell-based. On the procedure: (§3) Selection results were decoded with C++^[ [61] ^] and visualized using MATLAB R2019b (MathWorks). EFs were calculated by dividing the DNA sequence counts for each hit compound by the average DNA sequence count from the corresponding DEL screening. Additionally, Z‐score values were calculated following methods previously published,^[ [60] ^] as present in Supporting Information. Hit compounds with high EFs in the target protein selections and low EFs in the negative controls (anti‐target and streptavidin selections) were selected for hit validation activities. All compounds were synthesized using either solid‐phase peptide synthesis or solution‐phase methodologies. Affinities of fluorescein‐bearing hits were determined by FP or ELISA measurements. […] ACP3 colorimetric inhibition assay was performed with serially diluted compounds at a fixed concentration (5 mM in PBS) of para‐nitrophenyl phosphate as substrate. Binding kinetics were assessed on a Biacore X100 instrument with the target protein immobilized on a CM5 chip at 4′000 RUs. Cell binding of fluorescent ligands was evaluated using flow cytometry against antigen‐positive and antigen‐negative (wild‐type) cancer cells. in vitro tissue uptake of ^177Lu‐labelled DOTAGA PSMA‐radioligands was measured via autoradiography. Prism 9 software (GraphPad Software) was used for data analysis of FP, ELISA, PD‐10, SPR, and enzymatic assay measurements. SPR sensograms were fitted with the Biacore X100 Evaluation Software. Flow cytometry data was processed with the FlowJo 10.4 software.
HT1080.hPSMA and PC3.hACP3 cell lines were generated by lentiviral transduction on wild type cells (HT1080.wt and PC3.wt), according to published procedures9. […]
Cancer cells were detached with an Accutase® cell detachment solution, resuspended in a standard culture medium, and transferred to falcon tubes. Cells were counted and centrifuged at 400 rcf for 3 min. […] Data were acquired halting the measurement at 10´ 000 events on a Cytoflex S flow cytometer (Beckman Coulter), and analyzed using the FlowJo software v10 (BD Biosciences). […]
Background: Flow cytometry measures light scatter and fluorescence of single cells or particles in a stream.

The target of another assay is T2, PSMA (Homo sapiens, UniProt Q04609).
T2 construct: Avi-tag; made in house; host or cells: CHO cells
T2 sequence (Q04609 whole entry): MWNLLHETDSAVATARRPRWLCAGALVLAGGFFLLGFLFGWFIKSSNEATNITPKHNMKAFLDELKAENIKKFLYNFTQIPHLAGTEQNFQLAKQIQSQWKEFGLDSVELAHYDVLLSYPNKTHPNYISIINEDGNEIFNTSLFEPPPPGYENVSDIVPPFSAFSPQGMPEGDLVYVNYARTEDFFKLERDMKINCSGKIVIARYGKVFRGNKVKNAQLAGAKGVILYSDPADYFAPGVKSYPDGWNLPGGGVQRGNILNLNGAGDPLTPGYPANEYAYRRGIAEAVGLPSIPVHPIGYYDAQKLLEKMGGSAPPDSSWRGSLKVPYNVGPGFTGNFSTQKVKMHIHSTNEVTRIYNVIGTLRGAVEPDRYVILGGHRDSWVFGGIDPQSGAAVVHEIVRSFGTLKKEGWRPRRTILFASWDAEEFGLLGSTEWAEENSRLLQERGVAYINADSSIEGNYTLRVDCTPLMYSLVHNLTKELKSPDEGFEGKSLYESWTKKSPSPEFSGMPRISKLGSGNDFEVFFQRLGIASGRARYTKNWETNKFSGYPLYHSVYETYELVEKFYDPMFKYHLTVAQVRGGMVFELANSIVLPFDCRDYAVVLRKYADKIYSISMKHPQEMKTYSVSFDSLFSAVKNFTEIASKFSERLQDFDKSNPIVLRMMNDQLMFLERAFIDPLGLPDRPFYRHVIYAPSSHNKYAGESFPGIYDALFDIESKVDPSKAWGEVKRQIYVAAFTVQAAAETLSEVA
The assay is described as follows: Fluorescence polarization (FP) affinity against PSMA. The conditions noted are these: fluoresceinated compounds. The class given is binding. On the procedure: Hits obtained from FM‐DEL1 (A1452 and A3113) and FM‐DEL2 (A3113/B423) were re‐synthesized as stereo‐chemically pure off‐DNA compounds derivatized with a C6 linker featuring a fluorescein moiety (coupled to fluorescein isothiocyanate‐FITC) (compounds 1–6) [Figure 2E]. The binding affinity against PSMA and GCP3 (KD) of fluoresceinated compounds 1–6 was measured by fluorescence polarization (FP). […] The superiority of compound 5 (S‐configuration) in binding PSMA over compound 6 (R‐configuration) was confirmed by molecular docking studies [Figure S48, Supporting Information]. […] The presence of the sole building block A3113 on the 3‐iodo‐phenylalanine scaffold in the S‐configuration gives adequate selectivity for PSMA over GCP3. The addition of the second building block (B423) enhances both affinity and selectivity for the target.
as §1, with “RUs. Cell binding of fluorescent ligands was evaluated using flow cytometry against antigen‐positive and antigen‐negative (wild‐type) cancer cells. in vitro tissue uptake of ^177Lu‐labelled DOTAGA PSMA‐radioligands was measured via autoradiography.” for “RUs.”
(§4) The protein was then concentrated using Vivaspin® 20 centrifugal concentrators (30’000 Da molecular weight cutoff, Sartorius, #VS2012) and then purified by SEC or PD-10 column. The fractions were measured (absorption at 280 nm) on a Nanodrop 2000 Spectrophotometer to combine protein-containing fractions. […]
as §2

In another assay the target is T3, recombinant human ACP3 (Homo sapiens, UniProt P15309).
T3 construct: made in house; host or cells: CHO cells
T3 sequence (P15309 33-386): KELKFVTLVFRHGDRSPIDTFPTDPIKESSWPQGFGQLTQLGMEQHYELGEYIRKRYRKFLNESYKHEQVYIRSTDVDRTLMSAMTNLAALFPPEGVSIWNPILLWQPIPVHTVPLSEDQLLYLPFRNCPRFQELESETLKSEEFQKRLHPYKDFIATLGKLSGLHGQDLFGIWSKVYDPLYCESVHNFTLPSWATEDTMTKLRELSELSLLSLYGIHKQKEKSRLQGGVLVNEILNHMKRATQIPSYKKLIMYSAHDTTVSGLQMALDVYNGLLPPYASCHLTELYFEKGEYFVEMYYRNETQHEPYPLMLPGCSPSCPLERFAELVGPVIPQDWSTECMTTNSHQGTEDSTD
The assay is described as follows: Fluorescence polarization (FP) affinity against human ACP3. It is filed as binding. The settings on record: PSMA ligands as negative controls. The procedure:
as §3, with “SPR sensograms were fitted with the Biacore X100 Evaluation Software. Flow cytometry data was processed with the FlowJo 10.4 software.” left out
as §4
Protein dissolved in PBS or HEPES buffer was incubated for 30-60 min with 5 equiv. of EZ-LinkTM NHS-LC-Biotin (Thermo Fisher Scientific, #21336). […] The fractions were measured (absorption at 280 nm) on a Nanodrop 2000 Spectrophotometer to combine protein-containing fractions. […]
as §2

In a further assay the target is T4, human CAIX (hCAIX) (Homo sapiens, UniProt Q16790).
T4 construct: made in house; host or cells: CHO cells
The assay is described as follows: Fluorescence polarization (FP) affinity against hCAIX. It is filed as binding. The conditions noted are these: fluorescein derivatives.

The next assay has as its target T5, hCAIX (Homo sapiens, UniProt Q16790).
T5 construct: made in house; host or cells: CHO cells
The assay is described as follows: Surface plasmon resonance (SPR) on hCAIX. The class given is binding. The conditions noted are these: for Kd: 500 nM to 250 nM, CM5 chip. On the procedure: 2.14 Surface plasmon resonance (SPR)
SPR measurements were performed on a Biacore X100. Human recombinant ACP3 or CAIX were immobilized on a CM5 chip (Cytiva, #BR100012, both flow cells), reaching ~4000 RUs, using the EDC/NHS protocol provided by the manufacturer. The target protein immobilized on the reference flow cell was treated with denaturing solution (0.85% H3PO4, 10 mM NaOH, and 50 mM HCl). PBS (pH 7.4) was used as running buffer. Test compounds were injected at different concentrations in running buffer, according to a multicycle analysis with the following settings: 120 seconds contact time and 5´000 seconds (CAIX measurements) or 15´ 000 seconds (ACP3 measurements) dissociation time at a flow rate of 10 μL/min. Sensograms were plotted with GraphPad Prism (version 9, GraphPad Software) and fitted using the Biacore X100 Evaluation Software. […]
30 min at rt and washed with PBS (3 x 200 μL/well). The immobilized protein was incubated for 30 min in the dark with serial dilution of FITC-labelled compounds and washed with PBS (3 x 200 μL/well). A solution of rabbit polyclonal FITC antibody-horseradish peroxidase (anti-FITC-HRP, Abcam, #ab196968) 0.25 μg/mL in 2% milk-PBS was added to each well (100 μL/well) and incubated for additional 30 min in the dark at rt. Each well was washed with PBS 0.1% Tween (3 x 200 μL/ well) and with PBS (3 x 200 μL/ well). The substrate 3,3′,5,5′ -tetramethylbenzidine (TMB, Sigma Aldrich #T0440) was added (100 μL /well) and developed in the dark for 0.5-1 min. The reaction was stopped by adding 50 μL of an aqueous solution of H2SO4 1M. The absorbance was measured at 450 nm (reference level, 620–650 nm) with a Spark multimode microplate reader (Tecan Life Sciences). The experiments were […]
A general note: Surface plasmon resonance follows binding to a sensor surface in real time, without labels.

In assay [2] the test system is SK-RC-52 renal cell carcinoma cells. Kind of assay: Flow cytometry on SK-RC-52 cells. It is filed as cell-based. The conditions noted are these: 100 nM.

The structures appear in SMILES notation.

T1 sequence (Q9Y3Q0 whole entry): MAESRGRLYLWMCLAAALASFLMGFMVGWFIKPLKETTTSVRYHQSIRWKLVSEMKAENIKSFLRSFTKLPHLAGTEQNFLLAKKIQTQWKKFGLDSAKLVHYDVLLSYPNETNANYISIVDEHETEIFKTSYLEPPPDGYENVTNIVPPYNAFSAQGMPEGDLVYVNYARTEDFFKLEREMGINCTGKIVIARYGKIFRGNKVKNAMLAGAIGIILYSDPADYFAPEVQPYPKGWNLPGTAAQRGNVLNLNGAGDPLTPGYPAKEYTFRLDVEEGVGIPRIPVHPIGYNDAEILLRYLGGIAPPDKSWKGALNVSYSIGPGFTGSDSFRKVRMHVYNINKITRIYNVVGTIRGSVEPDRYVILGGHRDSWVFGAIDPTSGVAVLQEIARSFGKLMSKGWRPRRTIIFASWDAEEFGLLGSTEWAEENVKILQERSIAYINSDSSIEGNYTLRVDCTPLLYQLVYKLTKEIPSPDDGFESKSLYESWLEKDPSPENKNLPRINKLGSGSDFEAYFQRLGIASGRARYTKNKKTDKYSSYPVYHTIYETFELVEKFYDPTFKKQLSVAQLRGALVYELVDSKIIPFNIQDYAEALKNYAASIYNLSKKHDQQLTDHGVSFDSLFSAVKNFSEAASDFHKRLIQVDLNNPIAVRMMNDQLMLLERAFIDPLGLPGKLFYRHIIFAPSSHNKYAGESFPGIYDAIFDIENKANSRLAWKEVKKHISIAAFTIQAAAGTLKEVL
Method for human CAIX (hCAIX): A dilution series of target proteins (i.e., PSMA, GCP3, CAIX, CAII) in the respective formulation buffer were separately prepared in a black 384-well plate (non-binding Greiner small volume plate). Test compounds functionalized with fluorescein were diluted to a concentration between 5 and 10 nM (5 μL) and incubated for 15 min with the protein (final volume corresponding to 10 µL). The fluorophore was excited at 485 nm, and anisotropy was measured at 535 nm on a Spectra Max Paradigm multimode plate reader (Tecan). The experiments were performed in triplicate. KD values measured using this FP method can differ from dissociation constants obtained by other physical methods (e.g., surface plasmon resonance, see section below).

For orientation: Kd means the constant that tells how readily two partners part at equilibrium. For the compound `O=C(O)CC[C@H](NC(=O)N[C@@H](Cc1ccc(I)cc1)C(=O)NCCCCCCNC(=S)Nc1ccc2c(c1)C(=O)OC21c2ccc(O)cc2Oc2cc(O)ccc21)C(=O)O` [compound 1], the values for the Kd at GCP3 and at PSMA were 81 nM and 87 nM, respectively. Moreover, the “binding to PSMA on the cell surface by flow cytometry” value in assay [1] was “only compound 5 was able to bind”. The “binding to human ACP3 by FP” value at recombinant human ACP3 is listed as “did not bind”.

`O=C(O)CC[C@H](NC(=O)N[C@@H](Cc1cccc(I)c1)C(=O)NCCCCCCNC(=S)Nc1ccc2c(c1)C(=O)OC21c2ccc(O)cc2Oc2cc(O)ccc21)C(=O)O` [compound 3]: the “binding to PSMA on the cell surface by flow cytometry” value in assay [1] is given as “only compound 5 was able to bind”. For the same compound, the Kd on PSMA turned out to be 99 nM. Also, at recombinant human ACP3, the “binding to human ACP3 by FP” value was “did not bind”.

On to `NS(=O)(=O)c1ccc(-c2cccc(C[C@H](NC(=O)CCC(=O)N[C@@H](CCCCNC(=S)Nc3ccc4c(c3)C(=O)OC43c4ccc(O)cc4Oc4cc(O)ccc43)C(=O)O)C(=O)NCC3(c4cccs4)CCOCC3)c2)cc1` [compound 20], for which binding at human CAIX (hCAIX) was characterised by a dissociation constant (Kd) of 2.46 nM.

Regarding `NS(=O)(=O)c1ccc(-c2cccc(C[C@@H](NC(=O)CCC(=O)N[C@@H](CCCCNC(=O)CC[C@H](C(=O)O)N3CCN(CC(=O)O)CCN(CC(=O)O)CCN(CC(=O)O)CC3)C(=O)O)C(=O)NCC3(c4cccs4)CCOCC3)c2)cc1` [compound 22], at hCAIX, the “association rate (kon) on hCAIX by SPR” value is “fast association rates” and the Kd was found to be 50 nM.

As to `NS(=O)(=O)c1nnc(Nc2cccc(C[C@H](NC(=O)CCC(=O)N[C@@H](CCCCNC(=S)Nc3ccc4c(c3)C(=O)OC43c4ccc(O)cc4Oc4cc(O)ccc43)C(=O)O)C(=O)NCC3(c4cccs4)CCOCC3)c2)s1` [compound 23], the Kd on human CAIX (hCAIX) amounted to 2.06 nM.

On human CAIX (hCAIX), `NS(=O)(=O)c1nnc(Nc2cccc(C[C@@H](NC(=O)CCC(=O)N[C@@H](CCCCNC(=S)Nc3ccc4c(c3)C(=O)OC43c4ccc(O)cc4Oc4cc(O)ccc43)C(=O)O)C(=O)NCC3(c4cccs4)CCOCC3)c2)s1` [compound 24] yielded a Kd of 1.85 nM. For the same compound, in assay [2], the “binding to CAIX on the cell surface by flow cytometry” value was “bound to the antigen expressed on the surface of cancer cells”.

Consider `NS(=O)(=O)c1nnc(Nc2cccc(C[C@@H](NC(=O)CCC(=O)N[C@@H](CCCCNC(=O)CC[C@H](C(=O)O)N3CCN(CC(=O)O)CCN(CC(=O)O)CCN(CC(=O)O)CC3)C(=O)O)C(=O)NCC3(c4cccs4)CCOCC3)c2)s1` [compound 25], for which, on hCAIX, the “association rate (kon) on hCAIX by SPR” value is reported as “fast association rates”, the “dissociation rate (koff) on hCAIX by SPR” value was “slower dissociation rate” and binding was put at a Kd of 13 nM.
